Among the data in US20040176431A1, “Antiproliferative 2-(sulfo-phenyl)-aminothiazole derivatives and pharmaceutical compositions, and methods for their use” (Pfizer, Inc., priority 2003, published 2004) are Ki, IC50 and IC90 values, retold here.

One assay addresses T1, CDK4/cyclin D3 (Homo sapiens, UniProt P11802).
T1 construct: made in house; host or cells: insect cells (baculovirus co-infection)
The assay is described as follows: Inhibition of CDK4/Cyclin D retinoblastoma kinase activity. The format is biochemical. As to conditions: apparent Ki, Rb fragment substrate. In outline:
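Human CDK4 with truncated cyclin D3 (1-264) from baculovirus-infected insect cells, 5 nM, phosphorylating His-tagged Rb fragment (386-928) with 25 μM [32P/33P]ATP in pH 7.4 HEPES/MgCl2, 2% DMSO, 30° C., 20 min (60 min for tight binders). Filter capture, phosphorimager; apparent Ki from competitive or tight-binding competitive fits.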

The target in a further assay is T2, CDK2/cyclin A (Homo sapiens, UniProt P24941).
T2 construct: made in house; host or cells: CDK2: insect cells (baculovirus); cyclin A: E. coli, then limited proteolysis
The assay is described as follows: Inhibition of CDK2/Cyclin A retinoblastoma kinase activity. It is filed as biochemical. As to conditions: apparent Ki, Rb fragment substrate. The method, then: Cyclin-dependent kinase activity was measured by quantifying the enzyme-catalyzed, time-dependent incorporation of radioactive phosphate from [^32P]ATP or [^33P]ATP into a protein substrate. Unless noted otherwise, assays were performed in 96-well plates in a total volume of 50 μL, in the presence of 10 mM HEPES (N-[2-hydroxyethyl]piperazine-N′-[2-ethanesulfonic acid]) (pH 7.4), 10 mM MgCl2, 25 μM adenosine triphosphate (ATP), 1 mg/mL ovalbumin, 5 μg/mL leupeptin, 1 mM dithiothreitol, 10 mM β-glycerophosphate, 0.1 mM sodium vanadate, 1 mM sodium fluoride, 2.5 mM ethylene glycol-bis(β-aminoethyl ether)-N,N,N′N′-tetraacetic acid (EGTA), 2% (v/v) dimethylsulfoxide, and 0.03-0.4 μCi [^32/33P]ATP per reaction. Reactions were initiated with enzyme, incubated at 30° C., and terminated after 20 minutes by the addition of ethylenediaminetetraacetic acid (EDTA) to 250 mM. The phosphorylated substrate was then captured on a nitrocellulose or phosphocellulose membrane using a 96-well filtration manifold, and unincorporated radioactivity was removed by repeated washing with 0.85% phosphoric acid. Radioactivity was quantified by exposing the dried membranes to a phosphorimager.
Inhibition was measured relative to control wells that contained all reaction components including 2% (v/v) DMSO but no compound, after subtraction of background radioactivity measured in the absence of enzyme. Apparent Ki values of discrete compounds were measured by assaying enzyme activity in the presence of different inhibitor compound concentrations and subtracting the background radioactivity measured in the absence of enzyme. The kinetic parameters (kcat, Km for ATP) were measured for each enzyme under the usual assay conditions by determining the dependence of initial rates on ATP concentration. Inhibition data were fit to an equation for competitive inhibition using Kaleidagraph (Synergy Software), or were fit to an equation for competitive tight-binding inhibition using the software KineTic (BioKin, Ltd.).
CDK2 was purified using published methodology (Rosenblatt et al., J. Mol. Biol., 230, 1317-1319 (1993)) from insect cells that had been infected with a baculovirus expression vector. Cyclin A was purified from E. coli cells expressing full-length recombinant cyclin A, and a truncated cyclin A construct was generated by limited proteolysis and purified as described previously (Jeffrey et al., Nature, 376, 313-320 (1995)). A complex of CDK2 and proteolyzed cyclin A was prepared and purified by gel filtration. The substrate for this assay was the same Rb substrate fragment used for the CDK4 assays, and the methodology of the CDK2/delta cyclin A and the CDK4/delta cyclin D3 assays was essentially the same, except that CDK2 was present at 10 nM or 19 nM. The duration of the assay was 60 or 75 minutes, during which the time-dependence of product formation was linear and initial rate conditions were met.

The next assay concerns HCT-116 cells. The assay is described as follows: Inhibition of cell growth (MTT tetrazolium salt assay). The settings on record: Homo sapiens; for IC50: read-out: HCT116 IC50; for IC90: read-out: HCT116 IC90. The format is cell-based. The method, then: Inhibition of cell growth was measured using the tetrazolium salt assay, which is based on the ability of viable cells to reduce 3-(4,5-dimethylthiazol-2-yl)-2,5-[2H]-diphenyltetrazolium bromide (MTT) to formazan (Mosmann, J. Immunol. Meth., 65, 55-63 (1983)). The water-insoluble purple formazan product was then detected spectrophotometrically. HCT-116 cells were grown in 96-well plates. Cells were plated in the appropriate medium at a volume of 135 μl/well in either McCoy's 5A Medium. Plates were incubated for four hours before addition of inhibitor compounds. Different concentrations of inhibitor compounds were added in 0.5% (v/v) dimethylsulfoxide (15 μL/well), and cells were incubated at 37° C. (5% CO2) for four to six days (depending on cell type). At the end of the incubation, MTT was added to a final concentration of 0.2 mg/mL, and cells were incubated for 4 hours more at 37° C. After centrifugation of the plates and removal of medium, the absorbance of the formazan (solubilized in dimethylsulfoxide) was measured at 540 nm. […] All results were compared to control cells treated only with 0.5% (v/v) dimethylsulfoxide.
On the technique in general: Tetrazolium dyes change colour on reduction, which living cells bring about.

Where a name gives a salt, the structure may show the parent alone. A value given as a limit tells only on which side of the number the result lay.

T1 sequence (P11802 whole entry): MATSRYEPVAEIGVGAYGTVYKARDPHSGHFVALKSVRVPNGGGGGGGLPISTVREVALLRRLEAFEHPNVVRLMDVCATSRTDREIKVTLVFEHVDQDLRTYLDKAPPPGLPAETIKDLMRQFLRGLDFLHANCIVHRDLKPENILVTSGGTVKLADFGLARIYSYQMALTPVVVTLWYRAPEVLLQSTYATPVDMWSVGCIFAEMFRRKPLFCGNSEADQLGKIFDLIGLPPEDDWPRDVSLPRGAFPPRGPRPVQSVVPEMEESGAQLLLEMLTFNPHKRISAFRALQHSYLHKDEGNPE
T1 sequence (P30281 1-264 partner limits assumed): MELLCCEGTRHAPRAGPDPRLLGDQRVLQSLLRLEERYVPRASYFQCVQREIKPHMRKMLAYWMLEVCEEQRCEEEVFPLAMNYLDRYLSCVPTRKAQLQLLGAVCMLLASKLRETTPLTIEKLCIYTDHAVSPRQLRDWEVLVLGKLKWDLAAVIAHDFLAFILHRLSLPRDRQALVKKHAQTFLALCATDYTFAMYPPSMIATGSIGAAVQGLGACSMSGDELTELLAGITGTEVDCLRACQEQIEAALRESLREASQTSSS

One may read the IC50 as the concentration needed to halve the response being measured. In general, IC90 refers to the concentration needed for an effect of 90%. For `Nc1nc(Nc2ccc(S(=O)(=O)NCC3CCCNC3)cc2)sc1C(=O)c1c(F)cccc1F` (centres unmarked) [D(1), 4-[4-Amino-5-(2,6-difluoro-benzoyl)-thiazol-2-ylamino]-N-piperidin-3-ylmethyl-benzenesulfonamide], the Ki on CDK4/cyclin D3 turned out to be 12 nM. In addition, at CDK2/cyclin A, the Ki turned out to be 18 nM. For the same compound, in the assay with HCT-116 cells, the 50% inhibitory concentration (IC50) is 17000 nM and the IC90 was greater than 25000 nM.

As to `Nc1nc(Nc2ccc(S(=O)(=O)NCCc3ccc(F)cc3)cc2)sc1C(=O)c1c(F)cccc1F` [Example A(20), 4-[4-Amino-5-(2,6-difluoro-benzoyl)-thiazol-2-ylamino]-N-[2-(4-fluoro-phenyl)-ethyl]-benzenesulfonamide], at CDK4/cyclin D3, the Ki came to 14 nM. Besides, on CDK2/cyclin A, the Ki is less than 5 nM. Besides, in the assay with HCT-116 cells, the IC50 worked out at 900 nM and the concentration for an effect of 90% (IC90) was 2600 nM.

`Nc1nc(Nc2ccc(S(=O)(=O)NCCCN3CCCCC3)cc2)sc1C(=O)c1c(F)cccc1F` [Example A(14), 4-[4-Amino-5-(2,6-difluoro-benzoyl)-thiazol-2-ylamino]-N-(3-piperidin-1-yl-propyl)-benzenesulfonamide]: the Ki is 8.1 nM at CDK4/cyclin D3 and 6 nM at CDK2/cyclin A. Moreover, the IC50 in the assay on HCT-116 cells amounted to 420 nM. Also, the IC90 with HCT-116 cells came to 1700 nM.

With `CN(C)CCNS(=O)(=O)c1ccc(Nc2nc(N)c(C(=O)c3c(F)cccc3F)s2)cc1` [Example A(2), 4-[4-Amino-5-(2,6-difluoro-benzoyl)-thiazol-2-ylamino]-N-(2-dimethylamino-ethyl)-benzenesulfonamide], the Ki on CDK4/cyclin D3 was 7.5 nM. In addition, the Ki on CDK2/cyclin A stood at 4.5 nM. In addition, in the assay on HCT-116 cells, the IC50 came to 360 nM and the IC90 was 1100 nM.

Take `Nc1nc(Nc2ccc(S(=O)(=O)NCc3cc4ccccc4o3)cc2)sc1C(=O)c1c(F)cccc1F` [A(34), 4-[4-Amino-5-(2,6-difluoro-benzoyl)-thiazol-2-ylamino]-N-benzofuran-2-ylmethyl-benzenesulfonamide]: the Ki at CDK4/cyclin D3 worked out at 5.1 nM. At CDK2/cyclin A, the Ki is less than 10 nM. In the assay with HCT-116 cells, the IC50 was found to be 780 nM and the 90% effect concentration (IC90) amounted to 1800 nM.

Consider `NC(=O)CSc1ccc(Nc2nc(N)c(C(=O)c3c(Cl)cccc3Cl)s2)cc1` [Y(1), 2-{4-[4-Amino-5-(2,6-dichloro-benzoyl)-thiazol-2-ylamino]-phenylthio}-acetamide], for which, at CDK4/cyclin D3, the Ki worked out at 11 nM. On CDK2/cyclin A, the Ki turned out to be 66 nM. For the same compound, in the assay on HCT-116 cells, the concentration for half-maximal inhibition (IC50) turned out to be 2300 nM and the concentration for an effect of 90% (IC90) turned out to be 6000 nM.

For the compound `NC(=O)CSc1cccc(Nc2nc(N)c(C(=O)c3c(Cl)cccc3Cl)s2)c1` [Y(3), 2-{3-[4-Amino-5-(2,6-dichloro-benzoyl)-thiazol-2-ylamino]-phenylthio) acetamide], the Ki at CDK4/cyclin D3 turned out to be 33 nM. Also, the Ki at CDK2/cyclin A stood at 92 nM. In the assay with HCT-116 cells, the 50% inhibitory concentration (IC50) came to 11000 nM and the IC90 is greater than 25000 nM.

Take `Nc1nc(Nc2ccc(S(=O)(=O)c3ccncc3)cc2)sc1C(=O)c1c(Cl)cccc1Cl` [AA(3), 4-Amino-5-(2,6-dichlorobenzoyl)-2-[4-(pyridine-4-sulfonyl)-phenylamino]-thiazole]: at CDK2/cyclin A, the Ki turned out to be 190 nM.

Take `Nc1nc(Nc2ccc(S(=O)(=O)N3CCC(CCO)CC3)cc2)sc1C(=O)c1c(F)cccc1F` [Example A(16), (4-Amino-2-{4-[4-(2-hydroxy-ethyl)-piperidine-1-sulfonyl]-phenylamino}thiazol-5-yl)-(2,6-difluoro-phenyl)-methanone]: the Ki on CDK4/cyclin D3 was determined as 57 nM. Besides, on CDK2/cyclin A, the Ki is 18 nM. In the assay with HCT-116 cells, the IC50 is 1500 nM and the 90% effect concentration (IC90) is 3900 nM.

Turning to `Nc1nc(Nc2cccc(S)c2)sc1C(=O)c1c(Cl)cccc1Cl` [X(2)], the Ki on CDK2/cyclin A was determined as 1600 nM.

Consider `CCN(CC)CCCCNS(=O)(=O)c1ccc(Nc2nc(N)c(C(=O)c3c(F)cccc3F)s2)cc1` [A(26), 4-[4-Amino-5-(2,6-difluoro-benzoyl)-thiazol-2-ylamino]-N-(4-diethylamino-butyl)-benzenesulfonamide], for which the Ki on CDK4/cyclin D3 worked out at 3 nM. On CDK2/cyclin A, the Ki was 2.9 nM. In the assay on HCT-116 cells, the concentration for half-maximal inhibition (IC50) amounted to 850 nM and the IC90 amounted to 3300 nM.

Regarding `CC(CCCC(C)(C)O)NS(=O)(=O)c1ccc(Nc2nc(N)c(C(=O)c3c(F)cc(F)cc3F)s2)cc1` (centres unmarked) [B(2), 4-[4-Amino-5-(2,4,6-trifluoro-benzoyl)-thiazol-2-ylamino]-N-(5-hydroxy-1,5-dimethyl-hexyl)-benzenesulfonamide], the Ki at CDK4/cyclin D3 came out at 6.2 nM; at CDK2/cyclin A, 1.3 nM. Further, the half-maximal inhibitory concentration (IC50) with HCT-116 cells was 980 nM. Moreover, in the assay on HCT-116 cells, the 90% effect concentration (IC90) amounted to 2300 nM.

Regarding `Nc1nc(Nc2ccc([S+]([O-])CCO)cc2)sc1C(=O)c1c(Cl)cccc1Cl` (centres unmarked) [Z(3), 4-Amino-5-(2,6-dichlorobenzoyl)-2-[4-(2-hydroxy-ethanesulfinyl)-phenylamino]-thiazole], the Ki on CDK4/cyclin D3 came out at 30 nM; at CDK2/cyclin A, 170 nM. Moreover, the IC50 in the assay with HCT-116 cells turned out to be 6800 nM. The IC90 in the assay with HCT-116 cells was 16000 nM.

Turning to `CCN(CC)CCCNS(=O)(=O)c1ccc(Nc2nc(N)c(C(=O)c3c(F)cccc3F)s2)cc1` [Example A(13), 4-[4-Amino-5-(2,6-difluoro-benzoyl)-thiazol-2-ylamino]-N-(3-diethylamino-propyl)-benzenesulfonamide], the Ki at CDK4/cyclin D3 was found to be 8.9 nM. Also, the Ki at CDK2/cyclin A was found to be 10 nM. Moreover, in the assay on HCT-116 cells, the half-inhibitory concentration (IC50) stood at 730 nM and the 90% effect concentration (IC90) came out at 3000 nM.

For `CS(=O)(=O)c1cccc(Nc2nc(N)c(C(=O)c3c(Cl)cccc3Cl)s2)c1` [AA(1), 4-Amino-5-(2,6-dichloro-benzoyl)-2-(3-methanesulfonyl-phenylamino)-thiazole], at CDK2/cyclin A, the Ki was determined as 430 nM.

With `Nc1nc(Nc2ccc(Sc3ccccn3)cc2)sc1C(=O)c1c(Cl)cccc1Cl` [W(2), 4-Amino-5-(2,6-dichloro-benzoyl)-2-[4-(pyridin-2-ylthio)-phenylamino]-thiazole], the Ki on CDK4/cyclin D3 came to 190 nM; on CDK2/cyclin A, 500 nM.

Take `C[S+]([O-])c1cccc(Nc2nc(N)c(C(=O)c3c(Cl)cccc3Cl)s2)c1` (centres unmarked) [Z(1), 4-Amino-5-(2,6-benzoyl)-2-(3-methanesulfinyl-phenylamino)-thiazole]: on CDK2/cyclin A, the Ki worked out at 450 nM.

`Nc1nc(Nc2ccc(S(=O)(=O)NCc3cc(Cl)ccc3Cl)cc2)sc1C(=O)c1c(F)cccc1F` [Example A(7), 4-[4-Amino-5-(2,6-difluoro-benzoyl)-thiazol-2-ylamino]-N-(2,5-dichloro-benzyl)-benzenesulfonamide]: the Ki was found to be 62 nM at CDK4/cyclin D3 and 11 nM at CDK2/cyclin A.

For `Nc1nc(Nc2ccc(S)cc2)sc1C(=O)c1c(Cl)cccc1Cl` [X(1), 4-Amino-5-(2,6-dichloro-benzoyl)-2-(4-mercapto-phenylamino)-thiazole], the Ki at CDK2/cyclin A was 520 nM.

On to `Cn1cncc1CNS(=O)(=O)c1ccc(Nc2nc(N)c(C(=O)c3c(F)cccc3F)s2)cc1` [A(38), 4-[4-Amino-5-(2,6-difluoro-benzoyl)-thiazol-2-ylamino]-N-(1-methyl-1H-imidazol-5-ylmethyl)-benzenesulfonamide Trifluoroacetic Acid Salt], for which the figures for the Ki at CDK4/cyclin D3 and on CDK2/cyclin A were 3.9 nM and 0.48 nM, respectively.
